Source: paper PMC5734604 (Journal of Medicinal Chemistry, 2017)
“Also recorded” adds a separate entry of the source.

Tests used:
[1] = biological target: T1, human CB1 receptor (Homo sapiens, UniProt P21554); assay: biochemical; format: binding; settings: for residence time: read-out: RT (residence time)
[2] = biological target: T1, human CB1 receptor; assay: [35S]GTPγS binding antagonism assay, hCB1 HEK-293 membranes; format: biochemical; settings: recombinant human CB1 receptors on HEK-293 cell membranes, 30 °C; SD (n = 2) or SEM (n ≥ 3)
[3] = biological target: T1, human CB1 receptor; settings: association at 30 °C
[4] = biological target: T1, human CB1 receptor

T1 sequence (P21554 whole entry): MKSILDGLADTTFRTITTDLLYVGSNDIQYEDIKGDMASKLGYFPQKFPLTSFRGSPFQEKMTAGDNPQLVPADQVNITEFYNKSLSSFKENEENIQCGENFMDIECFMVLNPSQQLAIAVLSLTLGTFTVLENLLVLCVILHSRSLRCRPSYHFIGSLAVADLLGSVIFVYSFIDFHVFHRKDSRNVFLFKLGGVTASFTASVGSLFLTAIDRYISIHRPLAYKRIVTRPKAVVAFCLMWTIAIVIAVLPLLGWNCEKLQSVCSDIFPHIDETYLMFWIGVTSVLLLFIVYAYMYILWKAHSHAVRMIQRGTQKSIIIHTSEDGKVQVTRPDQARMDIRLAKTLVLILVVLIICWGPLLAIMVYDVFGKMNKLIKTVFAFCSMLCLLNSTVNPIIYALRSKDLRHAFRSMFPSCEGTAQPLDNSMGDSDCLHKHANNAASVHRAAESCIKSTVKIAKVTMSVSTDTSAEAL

For CCCS(=O)(=O)Oc1ccc(-n2c(-c3ccc(Cl)cc3Cl)nc(C(=O)NN3CCCCC3)c2C)cc1 [11b, 4-(2-(2,4-Dichlorophenyl)-5-methyl-4-(piperidin-1-ylcarbamoyl)-1H-imidazol-1-yl)phenyl propane-1-sulfonate], the koff [1] was 0.00022 s⁻¹, the kon [1] was 300000 M⁻¹ s⁻¹ and the residence time [1] was 78 ± 5 min.
In the case of CCCCS(=O)(=O)Oc1ccc(-n2c(-c3ccc(Cl)cc3Cl)nc(C(=O)NN3CCCCC3)c2C)cc1 [11e, 4-(2-(2,4-Dichlorophenyl)-5-methyl-4-(piperidin-1-ylcarbamoyl)-1H-imidazol-1-yl)phenyl butane-1-sulfonate], the “[35S]GTPγS binding pIC50 ± SD or SEM” value [2] is reported as 8.9 ± 0.05.
With Cc1c(C(=O)NN2CCCCC2)nc(-c2ccc(Cl)cc2Cl)n1-c1ccc(OS(=O)(=O)CCC(C)C)cc1 [11g, 4-(2-(2,4-Dichlorophenyl)-5-methyl-4-(piperidin-1-ylcarbamoyl)-1H-imidazol-1-yl)phenyl 3-methylbutane-1-sulfonate] the “[35S]GTPγS binding pIC50 ± SD or SEM” value [2] was 8.9 ± 0.1.
Cc1c(C(=O)Nc2ccc(F)nc2)nc(-c2ccc(Cl)cc2Cl)n1-c1ccc(OS(=O)(=O)CCC(F)(F)F)cc1 [14f, 4-(2-(2,4-Dichlorophenyl)-4-(6-fluoropyridin-3-ylcarbamoyl)-5-methyl-1H-imidazol-1-yl)phenyl 3,3,3-trifluoropropane-1-sulfonate] showed a koff [1] of 0.00027 s⁻¹, a kon [1] of 720000 M⁻¹ s⁻¹ and a residence time [1] of 62 ± 10 min.
CCCCCCC(C)(C)c1ccc([C@@H]2C[C@H](O)CC[C@H]2CCCO)c(O)c1 [CP55940] was tested, and the “time at which binding approached equilibrium” value [3] was “approximately 25 min”.
In the case of Cc1c(C(=O)Nc2ccc(C(F)(F)F)cn2)nc(-c2ccc(Cl)cc2Cl)n1-c1ccc(OS(=O)(=O)CCC(F)(F)F)cc1 [compound 28, 4-(2-(2,4-Dichlorophenyl)-5-methyl-4-(5-(trifluoromethyl)pyridin-2-ylcarbamoyl)-1H-imidazol-1-yl)phenyl 3,3,3-trifluoropropane-1-sulfonate], the koff [1] is reported as 7.8e-05 s⁻¹, the kon [1] is reported as 350000 M⁻¹ s⁻¹ and the residence time [1] is reported as 260 ± 56 min. For the same molecule, the “activity of compound alone (absence of CP55940)” value [4] was “inverse agonism” and the “type of antagonism of CP55940 action” value [4] was “insurmountable antagonism; also recorded: insurmountability”.
